# Measurements from patent EP0779076A1, “PEPTIDE, A METHOD OF OBTAINING IT AND A PHARMACEUTICAL COMPOUND BASED ON IT” (priority 1994, dated 1996).
# Non-standard residues stand in square brackets, D forms with d. Residues, ends and D or L forms follow the SMILES beside them.
# How the values were obtained:
# rats = test: Tail flick analgesic test; type: in vivo; conditions: intranasally 0.005 mg/kg
# Description: Opium-like activity was studied in a classical way by […] tests on isolated organs: - Test GPI (Guang T.A, Kosterlitz H.W, Agonist and antagonist action of morphine like drugs on the guinea pigs isolated ileum, Br.J. Pharmacol., 1966, V.27N3.P.514-527 - Test MVD; Hughs J., Kosterlitz H.W., Leslie F.M, Effect of morphine on adrenergic transmission in mouse is different. Assessment of agonist and antagonist potencies of narcotics, Br.J. Pharmacol., 1975, V. 53, N3-P. 371-381) As well as tests to determine opium-like activities by the […] hot plate test (Aukier S.I., New hot plate tests to qualify analgesic and narcotic antagonist activities, Eur.J. Pharmacol., 174 - V.27 Ni p.1-4) and "Tail flick" on rats (D'Amour F.E., Smith D.L, A method for determining loss, Exp.Ther.,1974, V.72 Ni-p.74-79).
# The analgesic activities of those peptides were tested by the "tail flick" method on rats which received intranasally a dose of 0.005 mg/kg. A real analgesic effect of 242 units was characteristic to the peptide H-Arg-Tyr-D-Ala-Phe-Gly-OH. Table 2 outlines the findings with regard to the opium-like activity for this peptide group.
smiles,measurement,setting,value
C[C@@H](NC(=O)[C@H](Cc1ccc(O)cc1)NC(=O)[C@@H](N)CCCNC(=N)N)C(=O)N[C@@H](Cc1ccccc1)C(=O)NCC(=O)O [H-Arg-Tyr-D-Ala-Phe-Gly-OH] (H-RY[dA]FG-OH),analgesic effect,rats,242 units
same,solubility in alcohol,alcohol,not well dissolvable in alcohol
same,solubility in chloroform,chloroform,nonsoluble in chloroform
same,solubility in water,water,dissolvable in water
